According to patent publication US6506928B1, “Dendrimeric fullerene derivatives, process for their preparation, and use as neuroprotectants” (Siemens Axiva GmbH & Co. KG, priority 1998, dated 2003):
≈ marks a conversion by molar mass, not a printed value.

Key:
[1] = test system: apoptotic neural death; settings: induced by serum withdrawal or exposure of Aβ1-42 protein; literature /12/; cited from earlier work
[2] = physchem
Experimental: The dendrimer fullerene 1 of second generation [18-cascade:methano-C60-fullerene[2]:(2-aza-7-oxa-3,8-dioxooctylidyne):(2-aza-3-oxopentylidyne):propanoic acid] (cf. preparation example 1) is prepared (Scheme 3) analogously to the synthesis of the derivative of first generation 8 shown in Scheme 2. As in the first case, the tert-butyl-protected γ-aminotriscarboxylic acid 3 is reacted with the appropriate nitrotriscarboxylic acid 9, whose tert-butyl ester is the synthesis precursor of 3 (15, 16), using DCC in the presence of 1HO-BT and subsequent reduction with hydrogen to the dendron 10 of second generation [9-cascade:aminomethane[3]:(2-aza-3-oxopentylidyne):tert-butyl propanoate]. […] The analogous removal of the protective groups leads to the dendrimer fullerene 1 of the second generation.

For “C60[C(COOH)2]3 [C3-symmetrical derivative]”, the “reduction of apoptotic neural death” value [1] is listed as “reduced apoptotic neural death”.
For `O=CCCC(CCC(=O)O)(CCC(=O)O)NC(=O)CCC(CCC(=O)NC(CCC(=O)O)(CCC(=O)O)CCC(=O)O)(CCC(=O)NC(CCC(=O)O)(CCC(=O)O)CCC(=O)O)NC(=O)CCCOC(=O)C1(C(=O)OCCCC(=O)NC(CCC(=O)NC(CCC(=O)O)(CCC(=O)O)CCC(=O)O)(CCC(=O)NC(CCC(=O)O)(CCC(=O)O)CCC(=O)O)CCC(=O)NC(CCC(=O)O)(CCC(=O)O)CCC(=O)O)C2c3cc4c5c6c(cc7ccc8cc9c%10c%11c(cc(c%12c3c5c(c%12%11)c3c6c7c8c%103)C21)C9)C4` (stereo not shown) [compound 1, 18-cascade:methano-C60-fullerene[2]:(2-aza-7-oxa-3,8-dioxooctylidyne):(2-aza-3-oxopentylidyne):propanoic acid], the “solubility (in words)” value [2] was “very readily soluble”, the solubility ([2]; 25 °C, pH 7, aqueous buffer) was about 34 mg/mL (≈ 13.7 mM) and the solubility ([2]; pH 10, aqueous buffer) was about 250 mg/mL (≈ 100 mM).
